In patent US20250368653A1, “SOLID FORMS COMPRISING (S)-7-(1-ACRYLOYLPIPERIDIN-4-YL)-2-(4-PHENOXYPHENYL)-4,5,6,7-TETRAHYDROPYRAZOLO[1,5-A]PYRIMIDINE-3-CARBOXAMIDE, AND OXALIC ACID, COMPOSITIONS AND METHODS OF USE THEREOF” (BeiGene Switzerland GmbH, priority 2022, published 2025):
≈ marks a conversion by molar mass, not a printed value. Where two headings read alike, the source gives them in different places.

Key:
[1] = Solubility experiment in water; type: physicochemical; conditions: solid loading 2 mg/mL; for solubility at 1 h / solubility at 2 h / solubility at 4 h / solubility at 24 h: thermodynamic from solid, read-out: S: solubility
Protocol: Table 7 and Table 8 provide summaries of solubility experiment in water at 37° C. and 25° C., respectively.

[2] = DVS water uptake; type: physicochemical; conditions: 25° C./80% RH

SMILES: C=CC(=O)N1CCC([C@@H]2CCNc3c(C(N)=O)c(-c4ccc(Oc5ccccc5)cc4)nn32)CC1 [Form 1]
- FC: solid form change ([1]; 25° C., 1 hr): No
- pH ([1]; 25° C., 1 hr): 3.36
- FC: solid form change ([1]; 25° C., 2 hrs): No
- pH ([1]; 25° C., 2 hrs): 3.09
- FC: solid form change ([1]; 25° C., 4 hrs): No
- pH ([1]; 25° C., 4 hrs): 3.01
- FC: solid form change ([1]; 25° C., 24 hrs): No
- pH ([1]; 25° C., 24 hrs): 2.76
- solubility at 1 h ([1]; 25 °C, 25° C., 1 hr): 75 µg/mL (≈ 159 µM)
- solubility at 2 h ([1]; 25 °C, 25° C., 2 hrs): 78 µg/mL (≈ 165 µM)
- solubility at 4 h ([1]; 25 °C, 25° C., 4 hrs): 77 µg/mL (≈ 163 µM)
- solubility at 24 h ([1]; 25 °C, 25° C., 24 hrs): 75 µg/mL (≈ 159 µM)
- FC: solid form change ([1]; 37° C., 1 hr): Gel
- pH ([1]; 37° C., 1 hr): 3.22
- FC: solid form change ([1]; 37° C., 2 hrs): Gel
- pH ([1]; 37° C., 2 hrs): 2.97
- FC: solid form change ([1]; 37° C., 4 hrs): Gel
- pH ([1]; 37° C., 4 hrs): 3.01
- FC: solid form change ([1]; 37° C., 24 hrs): Gel
- pH ([1]; 37° C., 24 hrs): 2.74
- solubility at 1 h ([1]; 37 °C, 37° C., 1 hr): 90 µg/mL (≈ 191 µM)
- solubility at 2 h ([1]; 37 °C, 37° C., 2 hrs): 88 µg/mL (≈ 187 µM)
- solubility at 4 h ([1]; 37 °C, 37° C., 4 hrs): 73 µg/mL (≈ 155 µM)
- solubility at 24 h ([1]; 37 °C, 37° C., 24 hrs): 82 µg/mL (≈ 174 µM)
- hygroscopicity [2]: non hygroscopic
- water uptake [2]: lower than 0.2%

SMILES: C=CC(=O)N1CCC([C@@H]2CCNc3c(C(N)=O)c(-c4ccc(Oc5ccccc5)cc4)nn32)CC1 [Freebase Amorphous]
- FC: solid form change ([1]; 25° C., 1 hr): No
- S: solubility ([1]; 25° C., 1 hr): 74 µg/mL
- pH ([1]; 25° C., 1 hr): 8.55
- FC: solid form change ([1]; 25° C., 2 hrs): No
- S: solubility ([1]; 25° C., 2 hrs): 81 µg/mL
- pH ([1]; 25° C., 2 hrs): 8.57
- FC: solid form change ([1]; 25° C., 4 hrs): No
- S: solubility ([1]; 25° C., 4 hrs): 78 µg/mL
- pH ([1]; 25° C., 4 hrs): 8.51
- FC: solid form change ([1]; 25° C., 24 hrs): No
- S: solubility ([1]; 25° C., 24 hrs): 72 µg/mL
- pH ([1]; 25° C., 24 hrs): 7.68
- FC: solid form change ([1]; 37° C., 1 hr): Gel
- S: solubility ([1]; 37° C., 1 hr): 89 µg/mL
- pH ([1]; 37° C., 1 hr): 8.78
- FC: solid form change ([1]; 37° C., 2 hrs): Gel
- S: solubility ([1]; 37° C., 2 hrs): 89 µg/mL
- pH ([1]; 37° C., 2 hrs): 8.77
- FC: solid form change ([1]; 37° C., 4 hrs): Gel
- S: solubility ([1]; 37° C., 4 hrs): 84 µg/mL
- pH ([1]; 37° C., 4 hrs): 8.60
- FC: solid form change ([1]; 37° C., 24 hrs): Gel
- S: solubility ([1]; 37° C., 24 hrs): 78 µg/mL
- pH ([1]; 37° C., 24 hrs): 7.74

SMILES: C=CC(=O)N1CCC([C@@H]2CCNc3c(C(N)=O)c(-c4ccc(Oc5ccccc5)cc4)nn32)CC1 [Freebase Form A]
- FC: solid form change ([1]; 25° C., 1 hr): No
- S: solubility ([1]; 25° C., 1 hr): 44 µg/mL
- pH ([1]; 25° C., 1 hr): 8.66
- FC: solid form change ([1]; 25° C., 2 hrs): No
- S: solubility ([1]; 25° C., 2 hrs): 46 µg/mL
- pH ([1]; 25° C., 2 hrs): 8.66
- FC: solid form change ([1]; 25° C., 4 hrs): No
- S: solubility ([1]; 25° C., 4 hrs): 40 µg/mL
- pH ([1]; 25° C., 4 hrs): 8.57
- FC: solid form change ([1]; 25° C., 24 hrs): No
- S: solubility ([1]; 25° C., 24 hrs): 47 µg/mL
- pH ([1]; 25° C., 24 hrs): 7.85
- FC: solid form change ([1]; 37° C., 1 hr): No
- S: solubility ([1]; 37° C., 1 hr): 55 µg/mL
- pH ([1]; 37° C., 1 hr): 8.76
- FC: solid form change ([1]; 37° C., 2 hrs): No
- S: solubility ([1]; 37° C., 2 hrs): 57 µg/mL
- pH ([1]; 37° C., 2 hrs): 8.77
- FC: solid form change ([1]; 37° C., 4 hrs): No
- S: solubility ([1]; 37° C., 4 hrs): 59 µg/mL
- pH ([1]; 37° C., 4 hrs): 8.63
- FC: solid form change ([1]; 37° C., 24 hrs): No
- S: solubility ([1]; 37° C., 24 hrs): 56 µg/mL
- pH ([1]; 37° C., 24 hrs): 7.67
